Assay results: patent US4551547A, “Biocidal 2-aryl-1, 3-cyclopentanedione enol ester compounds” (Union Carbide Corporation, priority 1983, dated 1985)

What was measured:
[1] = tested on: Red root pigweed (Amaranthus); experiment: Preliminary herbicide seed germination test (pre-emergent), red root pigweed; assay type: in vivo, Amaranthus retroflexus; parameters: key: 5: no seedling emerged; 4: few seedlings emerged and/or very severe stunting; 3: moderate reduction in stand and/or moderate stunting.; 2: very slight reduction in stand and/or slight stunting; 1: no injury, seedlings appear no different with respect to stand or growth than untreated controls; conditions: Table II; ten to twelve days after application
Method: (§1) Suspensions of the test compounds were prepared by dissolving one gram of compound in 50 milliliters of acetone in which had been dissolved 0.1 gram (10 percent of the weight of compound) of an alkylphenoxyethanol sufactant, as an emulsifying or dispersing agent. The resulting solution was mixed into 160 milliliters of water to give roughly 200 milliliters of a suspension containing the compound in finely divided form. The thus prepared stock suspension contained 0.5 percent by weight of compound. The test concentrations employed in the tests described below were obtained by diluting the stock suspension with water. The test procedures were as follows:
(§2) The following seeds were used in this test:
Red root pigweed--Amaranthus retroflexus
(§3) Two […] mixtures were prepared as follows:
(§4) Each of the above mixtures was rolled separately in 5 gallon containers for approximately one-half hour on ball mill to insure uniform mixing of seeds and soil. For each compound four 3-inch pots were filled with soil to within 11/2 inches of top of pots. To two of these pots were added 70 cc. of Mixture I. To the remaining 2 pots were added 70 cc. of Mixture II. The seed-soil mixture was tamped firmly, and the pots were removed to the greenhouse and watered lightly. About 2 hours after planting, 25 milliliters of the test formulation were added to one pot containing Mixture I and one pot containing Mixture II. An equal volume of a water solution containing acetone and an emulsifier in the same concentration as the herbicidal mixture but without the candidate herbicide was also added to each of the soil-seed mixtures. These pots are used as check or control units. The test compounds were formulated by diluting the stock suspension with water to obtain the desired concentration of the compound in parts per million of the final formulation. Each compound was tested at the same concentration. […] Ratings were made according to the following designations: […]

Cotton = experiment: Post-emergent herbicidal test, cotton; assay type: in vivo; parameters: key: 1: no perceptible injury; 2: intermediate degrees of injury; 3: intermediate degrees of injury; 4: intermediate degrees of injury; 5: the plant was dead; conditions: Table II; 2500 parts per million, after ten days
Method: as §1
(§5) Experiments were also conducted to determine the phytotoxicity of representative compositions with respect to healthy fresh plants. Solutions of the compounds were prepared as described above to provide a concentration of 2500 parts per million of the test compound. The test plants were sprayed in accordance with the procedure described above for the Mite Foliage Spray Test so as to deliver approximately 100 milliliters of test solutions to the leaves of each plant tested. The sprayed plants and controls were set aside for approximately one hour to allow the solutions to dry and were then placed in the greenhouse. After ten days the plants were visually inspected to determine the extent of foliage injury. A rating of 1 indicates no perceptible injury; 5 indicates the plant was dead and ratings of 2, 3 and 4 indicate intermediate degrees of injury based upon the number and extent to which leaves were injured.

Bean = experiment: Post-emergent herbicidal test, bean; assay type: in vivo; parameters: key: 1: no perceptible injury; 2: intermediate degrees of injury; 3: intermediate degrees of injury; 4: intermediate degrees of injury; 5: the plant was dead; conditions: Table II; 2500 parts per million, after ten days
Method: as §1, §5

Perennial rye grass = experiment: Preliminary herbicide seed germination test (pre-emergent), perennial rye grass; assay type: in vivo, Solium perenne; parameters: key: 5: no seedling emerged; 4: few seedlings emerged and/or very severe stunting; 3: moderate reduction in stand and/or moderate stunting.; 2: very slight reduction in stand and/or slight stunting; 1: no injury, seedlings appear no different with respect to stand or growth than untreated controls; conditions: Table II; ten to twelve days after application
Method: as §1, §2
Perennial rye grass--Solium perenne
as §3, §4

Corn = experiment: Post-emergent herbicidal test, corn; assay type: in vivo; parameters: key: 1: no perceptible injury; 2: intermediate degrees of injury; 3: intermediate degrees of injury; 4: intermediate degrees of injury; 5: the plant was dead; conditions: Table II; 2500 parts per million, after ten days
Method: as §1, §5

[2] = tested on: two-spotted mite (adults and nymphal stages); experiment: Mite Foliage Spray Test (adults and nymphs); assay type: in vivo, Tetranychus urticae (Koch); parameters: key to Miticidal, Adult: A: Excellent Control; B: Partial Control; No Control; conditions: Table II; mortality count after four days
Method: Suspensions of the test compounds were prepared by dissolving one gram of compound in 50 milliliters of acetone in which had been dissolved 0.1 gram (10 percent of the weight of compound) of an alkylphenoxyethanol sufactant, as an emulsifying or dispersing agent. The resulting solution was mixed into 160 milliliters of water to give roughly 200 milliliters of a suspension containing the compound in finely divided form. The thus prepared stock suspension contained 0.5 percent by weight of compound. The test concentrations employed in the tests described below were obtained by diluting the stock suspension with water. The test procedures were as follows: Adults and nymphal stages of the two-spotted mite (Tetranychus urticae (Koch)), reared on Tender-green beam plants at 80±5° F. and 50±5 percent relative humidity, were the tests organisms. Infested leaves from a stock culture were placed of the primary leaves of two bean plants six to eight inches in height, growing in a two-and-a-half inch clay pot. 150-200 Mites, a sufficient number for testing, transferred from the excised leaves to the fresh plants in a period of twenty-four hours. Following the twenty-four hour transfer period, the excised leaves were removed from the infested plants. The test compounds were formulated by diluting the stock suspension with water to provide suspensions containing the desired amount of test compound per million parts of final formulation. The potted plants (one pot per compound) were placed on a revolving turntable and sprayed with 100-110 milliliters of tests compound formulation by use of a DeVilbis spray gun set at 40 psi, air pressure. This application, which lasted 30 seconds, was sufficient to wet the plants to run-off. As a control, 100-110 milliliters of a water solution containing acetone and emulsifier in the same concentrations as the test compound formulation, but containing no test compound, were also sprayed on infested plants. The sprayed plants were held at 80±5° F. and 50±5 percent relative humidity for four days, after which, a mortality count of motile forms was made on the leaves of the test plants. Any individual which was capable of locomotion upon prodding was considered living. In these tests the pesticidal activity of the compounds against mites and mite eggs was rated as follows: Tests were conducted in accordance with the procedures given at pages 17 to 21 supra. The results are expressed in the same manner as used in Table II, except with respect to miticidal activity. For mite adult and mite egg comparison purposes, results are given in parts per million (ppm) required for a 50 percent kill of mites or eggs, respectively.

Tomato = experiment: Post-emergent herbicidal test, tomato; assay type: in vivo; parameters: key: 1: no perceptible injury; 2: intermediate degrees of injury; 3: intermediate degrees of injury; 4: intermediate degrees of injury; 5: the plant was dead; conditions: Table II; 2500 parts per million, after ten days
Method: as §1, §5

Crabgrass = experiment: Preliminary herbicide seed germination test (pre-emergent), crabgrass; assay type: in vivo, Digitaria sanguinalis; parameters: key: 5: no seedling emerged; 4: few seedlings emerged and/or very severe stunting; 3: moderate reduction in stand and/or moderate stunting.; 2: very slight reduction in stand and/or slight stunting; 1: no injury, seedlings appear no different with respect to stand or growth than untreated controls; conditions: Table II; ten to twelve days after application
Method: as §1, §2
Crabgrass--Digitaria sanguinalis
as §3, §4

SMILES	Pre-emergent Herbicidal, Amaranthus [1]	Post-emergent Herbicidal, Cotton (Cotton)	Post-emergent Herbicidal, Bean (Bean)	Pre-emergent Herbicidal, Rye (Perennial rye grass)	Post-emergent Herbicidal, Corn (Corn)	Miticidal, Adult [2]	Post-emergent Herbicidal, Tomato (Tomato)	Pre-emergent Herbicidal, Crabgrass (Crabgrass)
Cc1ccc(C)c(C2=C(OC(=O)C(C)C)CC(C)C2=O)c1 (stereo not shown) [Compound 16]	3	3	3	3	3	B	2	1
CCCCC(CC)C(=O)OC1=C(c2cc(C)ccc2C)C(=O)C(C)C1 (stereo not shown) [Compound 17]	3	3	3	3	3	A	1	1
CCCCCCCCCCCCCCCC(=O)OC1=C(c2cc(C)ccc2C)C(=O)C(C)C1 (stereo not shown) [Compound 18]	1	2	2	4	3	A	2	1
CC(=O)OC1=C(c2ccccc2C)C(=O)C2CCCCC12 (stereo not shown) [Compound 19, 3-acetoxy-2-(2'-methylphenyl)-4,5,6,7,8,9-hexahydro-2-indenone]	4	2	3	3	5	A	2	3
Cc1ccccc1C1=C(OC(=O)C(C)C)C2CCCCC2C1=O (stereo not shown) [Compound 20]	3	3	3	4	5	A	1	3
CCCCC(CC)C(=O)OC1=C(c2ccccc2C)C(=O)C2CCCCC12 (stereo not shown) [Compound 21, 3-(2-Ethylhexanoyloxy)-2-(2'-methylphenyl)-4,5,6,7,8,9-hexahydro-2-indenone]	2	2	1	3	5	A	1	2
Cc1ccccc1C1=C(OC(=O)C(C)(C)C)C2CCCCC2C1=O (stereo not shown) [Compound 22]	2	3	2	5	5	A	1	3
CCCCCCCCCC(=O)OC1=C(c2ccccc2C)C(=O)C2CCCCC12 (stereo not shown) [Compound 23]	3	3	2	5	5	A	1	3
CCCCCCCCCCCCCCCC(=O)OC1=C(c2ccccc2C)C(=O)C2CCCCC12 (stereo not shown) [Compound 24]	2	2	1	4	2	A	1	3
CC(=O)OC1=C(c2ccc(C)cc2C)C(=O)C2CCCCC12 (stereo not shown) [Compound 25]	3	3	1	5	3	A	2	5
CCCCC(CC)C(=O)OC1=C(c2ccc(C)cc2C)C(=O)C2CCCCC12 (stereo not shown) [Compound 26, 3-(2-ethylhexanoyloxy)-2-(2',4'-dimethylphenyl)-4,5,6,7,8,9-hexahydro-2-indenone]	1	2	2	5	5	A	2	1
Cc1ccc(C2=C(OC(=O)c3ccccc3)C3CCCCC3C2=O)c(C)c1 (stereo not shown) [Compound 27, 3-benzoyloxy-2-(2',4'-dimethylphenyl)-4,5,6,7,8,9-hexahydro-2-indenone]	4	2	1	5	4	A	2	5
CC(=O)OC1=C(c2cc(C)ccc2C)C(=O)C2CCCCC12 (stereo not shown) [Compound 28]	1	1	2	3	3	A	1	2
Cc1ccc(C)c(C2=C(OC(=O)C(C)C)C3CCCCC3C2=O)c1 (stereo not shown) [Compound 29]	1	2	1	1	2	A	1	1
